From patent US7511044B2, “Vanilloid receptor ligands and their use in treatments” (Amgen Inc., priority 2004, dated 2009)

Question: With `C[C@@H](c1ccc(F)cc1)N1CCN(c2cc(Oc3cccc4[nH]c(=O)c(N)nc34)ncn2)CC1` [Example 27, 3-Amino-5-(6-{4-[(1S)-1-(4-fluoro-phenyl)-ethyl]-piperazin-1-yl}-pyrimidin-4-yloxy)-1H-quinoxalin-2-one] as the compound, how does the melting point read?
Answer: 294.5 to 295.3 °C

Question: Which melting point does the source give for `C[C@@H](c1ccc(F)cc1)N1CCN(c2cc(Oc3cccc4ncc(N)nc34)ncn2)CC1` [Example 54, (S)-8-(6-(4-(1-(4-Fluorophenyl)ethyl)piperazin-1-yl)pyrimidin-4-yloxy)quinoxalin-2-amine] here?
Answer: 114 °C

Question: For `CC(=O)Nc1ccc2cccc(Oc3cc(N4CCN([C@H](C)c5ccc(F)cc5)CC4)ncn3)c2n1` [Example 69, (R)-N-(8-(6-(4-(1-(4-Fluorophenyl)ethyl)piperazin-1-yl)pyrimidin-4-yloxy)quinolin-2-yl)acetamide], which melting point is on record?
Answer: 134 °C

Question: For `C[C@H](c1ccc(F)cc1)N1CCN(c2cc(Oc3cc(F)cc4[nH]c(=O)c(N)nc34)ncn2)CC1` [Example 57, (R)-3-Amino-7-fluoro-5-(6-(4-(1-(4-fluorophenyl)ethyl)piperazin-1-yl)pyrimidin-4-yloxy)quinoxalin-2(1H)-one], which melting point is on record?
Answer: 315 °C

Question: For `CC(c1ccc(F)cc1)N1CCN(c2cc(Oc3cccc4ccncc34)ncn2)CC1` (stereo not shown) [Example 70, 8-(6-(4-(1-(4-Fluorophenyl)ethyl)piperazin-1-yl)pyrimidin-4-yloxy)isoquinoline], which melting point is on record?
Answer: 114 °C

Question: For `CC(c1ccc(F)cc1)N1CCN(c2cc(Oc3cccc4sc(N)nc34)ncn2)CC1` (stereo not shown) [Example 52, 4-(6-(4-(1-(4-Fluorophenyl)ethyl)piperazin-1-yl)pyrimidin-4-yloxy)benzo[d]thiazol-2-amine], which melting point is on record?
Answer: 222 °C

Question: With `CC(c1ccc(F)cc1)N1CCN(c2cc(Oc3cccc4c(=O)[nH]ccc34)ncn2)CC1` (stereo not shown) [Example 72, 5-(6-(4-(1-(4-Fluorophenyl)ethyl)piperazin-1-yl)pyrimidin-4-yloxy)isoquinolin-1(2H)-one] as the compound, how does the melting point read?
Answer: 249 °C

Question: Which melting point does the source give for `C[C@H](c1ccc(F)cc1)N1CCN(c2cc(Oc3cccc4ncc(N)nc34)ncn2)CC1` [Example 55, (R)-8-(6-(4-(1-(4-Fluorophenyl)ethyl)piperazin-1-yl)pyrimidin-4-yloxy)quinoxalin-2-amine] here?
Answer: 118 °C

Question: With `CC(=O)Nc1nc2c(Oc3cc(N4CCN(C(C)c5ccccc5F)CC4)ncn3)cccc2s1` (racemic) [Example 1, N-[4-(6-{4-[(1S,1R)-1-(2-Fluoro-phenyl)-ethyl]-piperazin-1-yl}-pyrimidin-4-yloxy)-benzothiazol-2-yl]-acetamide] as the compound, how does the melting point read?
Answer: 202.6 to 204.3 °C

Question: With `CC(=O)Nc1nc2c(Oc3cc(N4CCN([C@@H](C)c5ccc(F)cc5)CC4)ncn3)cccc2s1` [Example 21, N-[4-(6-{4-[(1S)-1-(4-Fluoro-phenyl)-ethyl]-piperazine 1-yl}-pyrimidin-4-yloxy)-benzothiazol-2-yl]-acetamide] as the compound, how does the melting point read?
Answer: 243.6 to 245.7 °C

Question: For `C[C@@H](c1ccc(F)cc1)N1CCN(c2cc(Oc3cccc4ccc(N)nc34)ncn2)CC1` [Example 24, 8-(6-{4-[(1S)-(4-Fluoro-phenyl)-ethyl]-piperazine-1-yl}-pyrimidin-4-yloxy)-quinolin-2-ylamine], which melting point is on record?
Answer: 167 °C

Question: For `CC(c1ccc(F)cc1)N1CCN(c2cc(Oc3cccc4c3NCC(=O)N4)ncn2)CC1` (stereo not shown) [Example 71, 5-(6-(4-(1-(4-Fluorophenyl)ethyl)piperazin-1-yl)pyrimidin-4-yloxy)-3,4-dihydroquinoxalin-2-(1H)-one], which melting point is on record?
Answer: 221 °C

Question: For `CC(=O)Nc1nc2c(Oc3cc(N4CCN(C(C)c5ccc(F)cc5)CC4)ncn3)cccc2o1` (stereo not shown) [Example 66, N-(4-(6-(4-(1-(4-Fluorophenyl)ethyl)piperazin-1-yl)pyrimidin-4-yloxy)benzo[d]oxazol-2-yl)acetamide], which melting point is on record?
Answer: 199.8 °C

Question: With `C[C@H](c1ccc(F)cc1)N1CCN(c2cc(Oc3cccc4c3nc(N)c(=O)n4C)ncn2)CC1` [Example 59, (R)-3-Amino-5-(6-(4-(1-(4-fluorophenyl)ethyl)piperazin-1-yl)pyrimidin-4-yloxy)-1-methylquinoxalin-2(1H)-one] as the compound, how does the melting point read?
Answer: 256 °C

Question: With `CC(c1ccc(F)cc1)N1CCN(c2cc(Oc3cccc4[nH]c(=O)ccc34)ncn2)CC1` (stereo not shown) [Example 61, 5-(6-(4-(1-(4-Fluorophenyl)ethyl)piperazin-1-yl)pyrimidin-4-yloxy)quinoline-2(1H)-one] as the compound, how does the melting point read?
Answer: 242.2 °C

Question: For `C[C@H](c1ccc(F)cc1)N1CCN(c2cc(Oc3cccc4[nH]c(=O)c(N)nc34)ncn2)CC1` [Example 26, 3-Amino-5-(6-{4-[(1R)-1-(4-fluoro-phenyl)-ethyl]-piperazin-1-yl}-pyrimidin-4-yloxy)-1H-quinoxalin-2-one], which melting point is on record?
Answer: 292.2 to 293.9 °C

Question: Which melting point does the source give for `CC(=O)Nc1nc2c(Oc3cc(N4CCN(C(C)c5ccc(F)cc5)CC4)ncn3)cccc2s1` (racemic) [Example 2, N-[4-(6-{4-[(1S,1R)-1-(4-Fluoro-phenyl) -ethyl]-piperazine1-yl}-pyrimidin-4-yloxy)-benzothiazol-2-yl]-acetamide] here?
Answer: 247.3 °C

Question: Which melting point does the source give for `CC(=O)Nc1nc2c(Oc3cc(N4CCN([C@H](C)c5ccc(F)cc5)CC4)ncn3)cccc2s1` [Example 22, N-[4-(6-{4-[(1R)-1-(4-Fluoro-phenyl)-ethyl]-piperazine1-yl}-pyrimidin-4-yloxy)-benzothiazol-2-yl]-acetamide] here?
Answer: 243.8 to 245.9 °C

Question: Which melting point does the source give for `C[C@@H](c1ccc(F)cc1)N1CCN(c2cc(Oc3cc(F)cc4[nH]c(=O)c(N)nc34)ncn2)CC1` [Example 58, (S)-3-Amino-7-fluoro-5-(6-(4-(1-(4-fluorophenyl)ethyl)piperazin-1-yl)pyrimidin-4-yloxy)quinoxalin-2(1H)-one] here?
Answer: 288 °C
